Assay results taken from US4757080A, “1,4-dihydropyridine derivatives” (Heumann Pharma GmbH & Co., priority 1986, dated 1988).

Tests used:
[1] = target: T1, isolated guineapig's ileum (Cavia porcellus); assay: calcium antagonistic activity on isolated guineapig's ileum stimulated with barium chloride; details: read-out: pA2-value (BaCl2) (converted)
T1 construct: isolated guineapig's ileum; from tissue; host or cells: isolated guinea pig ileum

H2-receptor = target: T2, H2-receptor (Cavia porcellus, UniProt P47747); assay: H2 agonistic activity (pD2-values), method of J. M. van Rossum, cumulative dose-response curves in isolated organs
T2 construct: Technique for the making of dose-response curves in isolated organs; from tissue
T2 sequence (P47747 whole entry): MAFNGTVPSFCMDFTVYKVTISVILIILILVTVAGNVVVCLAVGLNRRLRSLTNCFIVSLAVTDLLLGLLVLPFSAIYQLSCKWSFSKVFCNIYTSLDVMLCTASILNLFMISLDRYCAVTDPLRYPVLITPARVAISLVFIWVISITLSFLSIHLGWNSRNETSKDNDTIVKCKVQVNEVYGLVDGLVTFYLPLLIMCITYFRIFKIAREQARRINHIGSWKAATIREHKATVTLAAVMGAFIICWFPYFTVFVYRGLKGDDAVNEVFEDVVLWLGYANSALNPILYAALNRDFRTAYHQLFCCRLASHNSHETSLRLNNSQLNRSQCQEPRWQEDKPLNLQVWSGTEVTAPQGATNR
Description: Technique for the making of dose-response curves in isolated organs and the evaluation of drug parameters, Arch. Intern. Pharmacodyn. Therap.

[2] = system: arterial resistance, coronary dilatation, activity of the heart; details: in words, background, cited from earlier work

T1 sequence (O35505 whole entry): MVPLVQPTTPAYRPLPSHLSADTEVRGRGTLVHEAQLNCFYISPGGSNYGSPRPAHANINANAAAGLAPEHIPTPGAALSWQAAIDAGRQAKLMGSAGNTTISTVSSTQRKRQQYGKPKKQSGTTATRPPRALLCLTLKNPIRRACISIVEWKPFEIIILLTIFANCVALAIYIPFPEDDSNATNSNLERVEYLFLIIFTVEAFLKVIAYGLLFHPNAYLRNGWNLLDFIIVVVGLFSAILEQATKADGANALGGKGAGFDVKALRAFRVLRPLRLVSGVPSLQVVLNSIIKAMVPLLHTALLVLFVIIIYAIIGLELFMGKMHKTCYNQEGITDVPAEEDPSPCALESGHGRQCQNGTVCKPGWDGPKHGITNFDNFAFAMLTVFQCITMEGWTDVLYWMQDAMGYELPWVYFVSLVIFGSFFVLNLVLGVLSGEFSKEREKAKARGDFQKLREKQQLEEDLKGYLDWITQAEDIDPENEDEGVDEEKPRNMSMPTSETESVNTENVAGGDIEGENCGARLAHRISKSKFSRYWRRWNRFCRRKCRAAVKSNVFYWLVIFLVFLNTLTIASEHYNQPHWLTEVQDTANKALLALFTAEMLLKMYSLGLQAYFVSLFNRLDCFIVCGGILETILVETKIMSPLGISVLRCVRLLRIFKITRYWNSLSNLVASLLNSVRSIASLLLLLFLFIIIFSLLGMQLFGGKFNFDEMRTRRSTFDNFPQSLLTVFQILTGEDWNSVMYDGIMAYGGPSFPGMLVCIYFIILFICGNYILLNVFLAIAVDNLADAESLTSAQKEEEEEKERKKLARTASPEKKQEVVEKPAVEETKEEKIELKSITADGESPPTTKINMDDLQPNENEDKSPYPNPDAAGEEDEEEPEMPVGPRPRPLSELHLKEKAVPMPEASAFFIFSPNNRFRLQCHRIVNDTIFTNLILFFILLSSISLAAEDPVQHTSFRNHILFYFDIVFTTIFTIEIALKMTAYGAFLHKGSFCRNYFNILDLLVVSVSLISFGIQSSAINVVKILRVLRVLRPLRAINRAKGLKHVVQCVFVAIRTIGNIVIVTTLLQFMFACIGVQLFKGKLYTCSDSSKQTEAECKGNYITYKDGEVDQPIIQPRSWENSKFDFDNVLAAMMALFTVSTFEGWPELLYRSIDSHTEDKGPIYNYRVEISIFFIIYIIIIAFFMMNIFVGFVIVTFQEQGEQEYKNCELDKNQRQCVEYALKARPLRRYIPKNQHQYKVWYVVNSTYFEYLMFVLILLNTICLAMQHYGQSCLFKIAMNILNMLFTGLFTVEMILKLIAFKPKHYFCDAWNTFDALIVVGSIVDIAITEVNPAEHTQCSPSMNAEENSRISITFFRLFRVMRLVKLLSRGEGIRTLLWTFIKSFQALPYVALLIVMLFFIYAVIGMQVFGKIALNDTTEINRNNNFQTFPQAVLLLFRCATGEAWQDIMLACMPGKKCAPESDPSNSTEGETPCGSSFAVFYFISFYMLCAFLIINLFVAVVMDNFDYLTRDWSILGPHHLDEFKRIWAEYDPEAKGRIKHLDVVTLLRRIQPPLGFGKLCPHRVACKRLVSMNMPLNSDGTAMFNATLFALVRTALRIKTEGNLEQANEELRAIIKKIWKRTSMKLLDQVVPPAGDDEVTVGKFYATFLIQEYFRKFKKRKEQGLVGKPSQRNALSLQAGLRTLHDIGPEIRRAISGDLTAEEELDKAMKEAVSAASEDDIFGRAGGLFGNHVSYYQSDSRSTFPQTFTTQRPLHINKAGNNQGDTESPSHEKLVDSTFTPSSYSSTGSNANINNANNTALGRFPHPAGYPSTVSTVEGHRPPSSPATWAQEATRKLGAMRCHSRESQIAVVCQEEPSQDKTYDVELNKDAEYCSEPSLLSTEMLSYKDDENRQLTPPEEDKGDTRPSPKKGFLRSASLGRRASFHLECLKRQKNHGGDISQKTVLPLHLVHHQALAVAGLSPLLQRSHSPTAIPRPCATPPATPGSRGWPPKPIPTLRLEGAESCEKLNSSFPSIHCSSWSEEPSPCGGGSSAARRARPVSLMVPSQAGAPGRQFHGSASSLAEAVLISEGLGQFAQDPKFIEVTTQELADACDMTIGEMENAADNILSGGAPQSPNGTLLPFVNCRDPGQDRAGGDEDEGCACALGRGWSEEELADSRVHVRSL

Row | Structure (SMILES) | Kb [1] [µM] | EC50 (H2-receptor) [µM] | arterial resistance [2] | coronary dilatory effect [2] | inhibition of the activity of the heart ([2]; therapeutic doses)
1 | Cc1[nH]cnc1CSCCNC(=N)NCCCc1c[nH]cn1 [Impromidine, reference compound] |  | 0.0214 |  |  | 
2 | COC(=O)C1=C(C)NC(C)=C(C(=O)OC)C1c1ccccc1[N+](=O)[O-] [Nifedipine, 1,4-dihydro-2,6-dimethyl-4-(2-nitrophenyl)-3,5-pyridine carboxylic acid dimethyl ester] |  |  | lowers the arterial resistance | very marked coronary dilatory effect | without inhibiting the activity of the heart

The next lines start with results.

Row | Kb [1] [µM] | EC50 (H2-receptor) [µM] | Structure (SMILES) | arterial resistance [2] | coronary dilatory effect [2] | inhibition of the activity of the heart ([2]; therapeutic doses)
3 | 0.038 | 0.0479 | COC(=O)C1=C(C)NC(C)=C(C(=O)OCCNC(=N)NCCCc2c[nH]cn2)C1c1ccccc1[N+](=O)[O-] (stereo not shown) [Example 1, N^1-[2-[1,4-Dihydro-2,6-dimethyl-3-methoxycarbonyl-4-(2-nitrophenyl)-pyridine-5-carboxy]ethyl]-N^2-[3-(1H-imidazol-4-yl)propyl]-guanidine-hydriodide] |  |  | 
4 | 0.11 | 0.0389 | COC(=O)C1=C(C)NC(C)=C(C(=O)OCCCCCCNC(=N)NCCCc2c[nH]cn2)C1c1cccc([N+](=O)[O-])c1 (stereo not shown) [Example 7, N^1-[6[1,4-dihydro-2,6-dimethyl-3-methoxycarbonyl-4-(3-nitrophenyl)-pyridine-5-carboxy]hexyl]-N^2 [3-(1H-imidazol-4-yl)propyl]-guanidine hydriodide] |  |  | 
5 | 0.0302 | 0.331 | COC(=O)C1=C(C)NC(C)=C(C(=O)OCCNC(=N)NCCCc2c[nH]cn2)C1c1cccc(Cl)c1Cl (stereo not shown) [Example 8, N^1-[2-[1,4-Dihydro-2,6-dimethyl-3-methoxycarbonyl-4-(2,3-dichlorophenyl)-pyridine-5-carboxy]ethyl]-N^2-[3-(1H-imidazol-4-yl)propyl]-guanidine hydriodide] |  |  | 
